Measured values reported in patent US20150359815A1, “PAK1 INHIBITION FOR TREATMENT OF ACUTE MYELOID LEUKEMIA AND MYELODYSPLASTIC SYNDROMES” (ALBERT EINSTEIN COLLEGE OF MEDICINE OF YESHIVA UNIVERSITY, priority 2013, published 2015).

Key:
THP1 AML cells [1] = assay: Survival of mice injected with THP1 cells expressing PAK1 shRNA; format: in vivo; details: for liver infiltration of leukemia cells: animals receiving THP1 with shRNA vs control cells, not illustrated; for survival of mice: mice injected with 300,000 THP1 cells expressing shRNA, vs non-silencing control shRNA, FIG. 12B
Method: FIG. 12A-12B, Evaluation of PAK1 expression reduction in THP1 AML cells by shRNAs, A) Evaluated mRNA levels by RT-gPCR.
The effects on survival of reduced PAK1 expression in THP1 AML cells when expression was reduced by shRNAs was evaluated in mice.

THP1 AML cells [2] = assay: Cell proliferation assay, THP1 AML cells; format: cell-based, human; details: FIG. 2, FIG. 7
Method: (§1) Cell proliferation, cell cycle, and apoptosis assays. For cell proliferation assays, manual cell counts were performed by culturing cells in 24- or 48-well plates. Viable cells were counted using trypan blue exclusion and cell density was re-adjusted in each well every 3-5 days. For cell cycle assays, the Click-iT™ EdU Flow Cytometry Assay system (Invitrogen) was used following the manufacturer's instructions. For apoptosis assays, apoptotic and necrotic cells were analyzed by use of Annexin V/DAPI staining.

[3] = tested on: AML and MDS cells isolated from the bone marrow of AML and MDS patients; assay: Growth of primary patient AML/MDS cells versus healthy donor hematopoietic cells; format: cell-based, human; details: primary bone marrow and peripheral blood samples; *p<0.05, **p<0.01; FIG. 5
Method: The experiments illustrated in FIG. 5 were performed using primary bone marrow and peripheral blood samples given by healthy donors and by patients with acute myeloid leukemia.

HL60 AML cells = assay: Cell proliferation assay, HL60 AML cells; format: cell-based, human; details: FIG. 2, FIG. 3
Method: as §1

[4] = tested on: cells from a patient with myelodysplastic syndrome (MDS); assay: Colony formation of cells from a patient with myelodysplastic syndrome; format: cell-based, human; details: FIG. 8
Method: FIG. 8. Compound 1-mediated inhibition of PAK1: effects on colony formation of cells from a patient with myelodysplastic syndrome (MDS). Inhibition of PAKI is effective in both myelodysplastic syndrome (MDS) and acute myeloid leukemia (AML).
(§2) Colony, formation assays and serial replating assays. Assays were performed in MethoCult M3434 (Stern Cell Technologies, Vancouver, BC) containing IL-3, IL-6, SCF, and EPO or in MethoCult M3234 supplemented with M-CSF or GM-CSF as previously described (Higuchi et al, 2002; Huntly et al, 2004;Will et al, 2009). GFP+ colonies were scored 8-10 days after plating using an AXIOVERT 200M microscope (Zeiss, Maple Grove, Minn.). After scoring, GFP+ cells were re-sorted after each round and then serial replating assays were carried out. Cells were replated and colonies were again scored after 10-14 days.
FIG. 8 illustrates Compound 1-mediated inhibition of PAK1 effects on colony formation of cells from a patient with myelodysplastic syndrome (MDS) Inhibition of PAK1 is effective in both myelodysplastic syndrome (MDS) and acute myeloid leukemia (AML). See also FIG. 5.

AML cells [5] = assay: Apoptosis assay (Annexin V/DAPI), AML cells; format: cell-based; details: 24 hours of incubation, FIG. 6
Method: FIG. 6. […] 24 hours of incubation with Compound 1 (assay by Annexin V/DAPI), Black—Percentage of live cells; Grey—Percentage of apoptotic cells.
as §1

KG1a AML cells = assay: Cell proliferation assay, KG1a AML cells; format: cell-based, human; details: FIG. 2
Method: as §1

AML cells [6] = assay: Colony formation assay, AML cells; format: cell-based; details: FIG. 4
Method: as §2

STAT4 = STAT4 expression in THP1 cells (Western Blot, qRT-PCR); format: cell-based, human; details: FIG. 10
Method: FIG. 10A-10B. STAT4 expression is increased upon treatment with Compound 1 (IPA-3) or PAKI shRNA knockdown in THP1 cells. A) Western Blot; B) qRT-PCR.
Quantitative real-time PCR. Total RNA was extracted from FACS-sorted cells or cultured cells using RNeasy Micro kit (Qiagen, Valencia, Calif.). cDNA was synthesized by Superscript II reverse transcriptase (Invitrogen, Carlsbad, Calif.). Real-time PCR was performed using an iQ5 real-time PCR detection system (BIO-RAD, Hercules, Calif.) with 1 cycle of 50° C. (2 min) and 95° C. (10 min) followed by 40 cycles of 95° C. (15 sec) and 60° C. (1 min) using Power SYBR Green PCR master mix (AB, Carlsbad, Calif.).
Western blotting. Total cell lysates were extracted in lysis buffer (50 mM Tris-Cl (pH 7.5), 1 mM EDTA, 150 mM NaCl, 1%NP-40, 1% sodium deoxycholate, 1 mM PMSF, and protease inhibitor (Roche)). Anti-Hlx polyclonal rabbit antibody (SantaCruz, clone H-130, sc-135014) and anti-actin polyclonal goat antibody (Santa Cruz, clone C-11, sc1615) were used as primary antibodies, […] anti-rabbit or anti-goat antibody (Santa Cruz) were used as secondary antibodies. ECL solution (Pierce) was used for detection.
(§3) In contrast, STAT4 expression is increased upon treatment with Compound 1 or PAK1 shRNA knockdown in THP1 cells (FIG. 10).

MOLM13 = assay: Cell proliferation assay, MOLM13 AML cells; format: cell-based, human; details: FIG. 2
Method: as §1

[7] = tested on: downstream signaling pathways of PAK1; assay: Phosphorylation status of kinases in THP1 leukemia cells; format: cell-based, human; details: 4 hours, 6 μg/ml IPA-3 vs DMSO, FIG. 9
Excerpt: FIG. 9. Effect of Compound 1 (IPA-3) on downstream signaling pathways of PAKI.
as §3

Compound: shRNA #1: short hairpin sequence for human PAK1, CGATGAGAAATACCAGCACTA, expressed by lentivirus (the letters are possibly those of the target site)
- liver infiltration of leukemia cells (THP1 AML cells [1]): Significantly less liver infiltration of leukemia cells
- survival of mice (THP1 AML cells [1]): Significant prolongation of survival

Compound: shRNA #2: short hairpin sequence for human PAK1, GCGATCCTAAGAAGAAATATA, expressed by lentivirus (the letters are possibly those of the target site)
- liver infiltration of leukemia cells (THP1 AML cells [1]): Significantly less liver infiltration of leukemia cells
- long-term survival of some mice (THP1 AML cells [1]; entire duration of the assay (90 days)): long-term survival
- survival of mice (THP1 AML cells [1]): Significant prolongation of survival

Compound: Cc1nc(Nc2n[nH]c3c2CN(C(=O)N[C@H](CN(C)C)c2ccccc2)C3(C)C)c2sccc2n1 [Compound 2, (S)-N-(2-(dimethylamino)-1-phenylethyl)-6,6-dimethyl-3-((2-methylthieno[3,2-d]pyrimidin-4-yl)amino)-4,6-dihydropyrrolo[3,4-c]pyrazole-5(1H)-carboxamide]
- proliferation of THP1 AML cells (THP1 AML cells [2]): reduces proliferation

Compound: Oc1ccc2ccccc2c1SSc1c(O)ccc2ccccc12 [Compound 1, 1,1′-Disulfanediyldinaphthalen-2-ol]
- effect on growth of AML and MDS patient cells compared with healthy hematopoietic cells [3]: greater effect
- proliferation of HL60 AML cells (HL60 AML cells): reduces proliferation
- colony formation of cells from a patient with MDS [4]: effective
- apoptosis in AML cells (AML cells [5]): induces apoptosis
- proliferation of KG1a AML cells (KG1a AML cells): reduces proliferation
- proliferation of THP1 AML cells (THP1 AML cells [2]): reduces proliferation
- colony formation ability of AML cells (AML cells [6]): reduces colony formation ability
- STAT4 expression (STAT4): increased
- proliferation of MOLM13 AML cells (MOLM13): reduces proliferation
- several additional oncogenic signaling pathways (kinase phosphorylation status) [7]: significantly inhibited
